Test system: rats
Settings: rat, in vivo, 30 mg/kg

## CC[C@H](C)[C@@H]1C(=O)N[C@H](C2Cc3ccccc3C2)C(=O)N1[C@@H](C(=O)N1CCOCC1)c1coc(C)n1 [Example 1, (3R,6R)-3-(2,3-dihydro-1H-inden-2-yl)-1-[(1R)-1-(2-methyl-1,3-oxazol-4-yl)-2-(4-morpholinyl)-2-oxoethyl]-6-[(1S)-1-methylpropyl]-2,5-piperazinedione]
  adverse toxicological effects: no adverse toxicological effects were observed
